Test results taken from US8227406B2, “Antimicrobial peptides” (Dermagen AB, priority 2006, dated 2012).

Key:
[1] = system: Eschericia coli ATCC25922; test: Radial diffusion assay (RDA), E. coli; type: cell-based, Escherichia coli; details: Table 1b; 10 mM Tris Hcl (pH 7.4)
Protocol: (§1) Peptides. Peptides were from Sigma-Genosys, generated by a peptide synthesis platform (PEPscreen®, Custom Peptide Libraries, SigmaGenosys). Yield was ˜1-6 mg, and peptide length 20 amino acids. MALDI-ToF Mass Spectrometry was perfomed on these peptides. Average Crude Purity of 20mers was ˜60%. Peptides were supplied lyophilized and in a 96-well tube rack. Prior to biological testing the PEPscreen peptides were diluted in dH2O (5 mM stock), and stored at −20 C. This stock solution was used for the subsequent experiments.
(§2) Eschericia coli ATCC25922, Staphylococcus aureus ATCC29213, and the fungal isolate Candida albicans ATCC90028 were obtained from the Department of Bacteriology, Lund University Hospital.
(§3) Radial diffusion assays (RDA) were performed essentially as described earlier (Lehrer, R. I., Rosenman, M., Harwig, S. S., Jackson, R. & Eisenhauer, P. (1991) Ultrasensitive assays for endogenous antimicrobial polypeptides, J Immunol Methods. 137, 167-73). Briefly, bacteria (E. coli, S. aureus) or fungi (C. albicans) were grown to midlogarithmic phase in 10 ml of full-strength (3% w/v) trypticase soy broth (TSB) (Becton-Dickinson, Cockeysville, Md.). The microorganisms were washed once with 10 mM Tris, pH 7.4. 4×10^6 bacterial cfu or 1×10^5 fungal cfu was added to 5 ml of the underlay agarose gel, consisting of 0.03% (w/v) TSB, 1% (w/v) low-electroendoosmosistype (Low-EEO) agarose (Sigma, St Louise Mo.) and a final concentration of 0.02% (v/v) Tween 20 (Sigma). The underlay was poured into a Ø 85 mm petri dish. After agarose solidified, 4 mm-diameter wells were punched and 6 μl of test sample was added to each well. Plates were incubated at 37° C. for 3 hours to allow diffusion of the peptides. The underlay gel was then covered with 5 ml of molten overlay (6% TSB and 1% Low-EEO agarose in dH2O). Antimicrobial activity of a peptide is visualized as a clear zone around each well after 18-24 hours of incubation at 37° C. for bacteria and 28° C. for Candida albicans. Other examples of peptides that were screened and found to show an increased effect against the above mentioned microorgansism are listed below. Some of the results are found in table 1c showing the effects against C. albicans, table 1d E. coli and table 1e S. aureus.

[2] = system: Staphylococcus aureus ATCC29213; test: Radial diffusion assay (RDA), S. aureus; type: cell-based; details: Table 1b; 10 mM Tris Hcl (pH 7.4)
Protocol: as §1, §2, §3

Substance	RDA values (mm) E. coli ATCC 25922 [1] [mm]	RDA values (mm) S. aureus ATCC 29213 [2] [mm]
WWWKN [Peptide T41]	0.00	0.00
KNKWWW [Peptide T9]	2.73	0.00
KWWW [Peptide T11]	0.00	0.00
KNKGKKNGWWWWW [Peptide T15]	8.03	3.90
KNKGKKNWWW [Peptide T5]	8.36	2.85
KNKGKWWWWW [Peptide T18]	8.21	1.82
KKKKKWWW [Peptide T52]	9.01	3.43
KNKGKKNGKHWWW [Peptide T23]	8.65	3.26
WWWKNKGKKN [Peptide T36]	5.04	0.66
DDDDDDDDDDWWW [Peptide T60]	0.00	0.00
WWWKNKGK [Peptide T38]	1.42	0.00
KKWWW [Peptide T55]	2.95	1.01
KNKGKWWW [Peptide T7]	6.84	0.00
KNKGKKNGKHWWWWW [Peptide T13]	7.93	5.58
KNWWW [Peptide T10]	2.69	0.00
KNKGKKWWWWW [Peptide T17]	8.98	3.88
KNGKHWWW [Peptide T28]	4.99	0.00
WWWKNKGKKNG [Peptide T35]	1.57	0.00
SNSGSSNGSHWWW [Peptide T44]	0.00	0.00
WWWKNKG [Peptide T39]	0.00	0.00

Substance	RDA values (mm) E. coli ATCC 25922 [1] [mm]	RDA values (mm) S. aureus ATCC 29213 [2] [mm]
WWWKNKGKKNGKH [Peptide T33]	7.95	2.20
KNKGWWWWW [Peptide T19]	4.49	1.10
WWWSNSGSSNGSH [Peptide T45]	0.00	0.00
WWWKNKGKK [Peptide T37]	3.28	0.11
NKGKKNGKHWWW [Peptide T24]	8.44	2.41
SNSGSSNGSH [Peptide T43]	0.00	0.00
KKKKWWW [Peptide T53]	8.11	2.85
KHWWW [Peptide T31]	1.48	0.00
KKKKKKKKKWWW [Peptide T48]	9.26	7.19
NGKHWWW [Peptide T29]	0.00	0.00
KKKKKKKWWW [Peptide T50]	7.82	4.90
KNKGKKNGKWWW [Peptide T3]	9.16	4.07
KKKKKKKKKKWWW [Peptide T47]	7.48	4.46
WWWK [Peptide T42]	0.00	0.00
KNKGKKNWWWWW [Peptide T16]	9.09	3.83
KNKGKKNGKHGSGSPWWW [Peptide T61]	8.64	1.52
KNKGKKNGKWWWWW [Peptide T14]	7.90	5.07
HWWW [Peptide T32]	0.00	0.00
KKKKKKKKKK [Peptide T46]	5.94	1.32
SSSSSSSSSSWWW [Peptide T58]	0.00	0.00

Substance	RDA values (mm) E. coli ATCC 25922 [1] [mm]	RDA values (mm) S. aureus ATCC 29213 [2] [mm]
WWWKNK [Peptide T40]	0.00	0.00
GKHWWW [Peptide T30]	3.05	0.00
GKKNGKHWWW [Peptide T26]	7.47	1.76
WWW [Peptide T12]	0.00	0.00
KNKGWWW [Peptide T8]	2.94	0.00
KWWWWW [Peptide T22]	2.18	0.00
KKKKKKKKWWW [Peptide T49]	7.90	5.48
KKKWWW [Peptide T54]	4.93	2.02
KKNGKHWWW [Peptide T27]	7.56	1.68
KNKGKKNGKHWWW [Peptide T2]	8.90	4.23
KNKGKKWWW [Peptide T6]	8.16	2.79
KWWW [Peptide T56]	4.48	0.75
KNWWWWW [Peptide T21]	1.70	0.00
KKKKKKWWW [Peptide T51]	8.12	4.16
DDDDDDDDDD [Peptide T59]	0.00	0.00
SSSSSSSSSS [Peptide T57]	0.00	0.00
KNKWWWWW [Peptide T20]	4.22	0.55
KGKKNGKHWWW [Peptide T25]	8.87	2.55
WWWKNKGKKNGK [Peptide T34]	4.94	0.43
KNKGKKNGKH [Peptide T1]	2.56	0.00
